Test results published in ChEMBL document CHEMBL1201862, “PubChem BioAssay data set” (2004).
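Compound exposure: 48 hours, 5 concentrations, 96-well plates. Here, GI50 denotes the concentration required for 50% inhibition of growth.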 Calls of active or inactive are those of the source. Cut-off read from the data, not from the text of the source: active = GI50 up to about 1.1 µM and inactive = higher.

Columns and labels:
Assay in all cases: inhibition of tumour cell growth, NCI panel, 48 h
786-0 = test system: 786-0
A498 = test system: A498
A549 = test system: A549
ACHN = test system: ACHN
CAKI-1 = test system: CAKI-1
CCRF-CEM = test system: CCRF-CEM
COLO 205 = test system: COLO 205
DLD-1 = test system: DLD-1
DMS-114 = test system: DMS-114
DMS-273 = test system: DMS-273
EKVX = test system: EKVX
HCC 2998 = test system: HCC 2998
HCT-116 = test system: HCT-116
HCT-15 = test system: HCT-15
HL-60 = test system: HL-60
HOP-18 = test system: HOP-18
HOP-62 = test system: HOP-62
HOP-92 = test system: HOP-92
HT-29 = test system: HT-29
IGROV-1 = test system: IGROV-1
K562 = test system: K562
KM-20L2 = test system: KM-20L2
KM12 = test system: KM12
LOX IMVI = test system: LOX IMVI
LXFL 529 = test system: LXFL 529
M14 = test system: M14
MOLT-4 = test system: MOLT-4
Malme-3M = test system: Malme-3M
NCI-H226 = test system: NCI-H226
NCI-H23 = test system: NCI-H23
NCI-H460 = test system: NCI-H460
NCI-H522 = test system: NCI-H522
OVCAR-3 = test system: OVCAR-3
OVCAR-4 = test system: OVCAR-4
OVCAR-5 = test system: OVCAR-5
OVCAR-8 = test system: OVCAR-8
RPMI-8226 = test system: RPMI-8226
RXF 393 = test system: RXF 393
RXF 631 = test system: RXF 631
SF-268 = test system: SF-268
SF-295 = test system: SF-295
SF-539 = test system: SF-539
SK-MEL-28 = test system: SK-MEL-28
SK-MEL-2 = test system: SK-MEL-2
SK-MEL-5 = test system: SK-MEL-5
SN12C = test system: SN12C
SNB-19 = test system: SNB-19
SNB-75 = test system: SNB-75
SNB-78 = test system: SNB-78
SR = test system: SR
SW-620 = test system: SW-620
TK-10 = test system: TK-10
U-251 = test system: U-251
UACC-257 = test system: UACC-257
UACC-62 = test system: UACC-62
UO-31 = test system: UO-31
XF498 = test system: XF498
M19-MEL = test system: M19-MEL
SK-OV-3 = test system: SK-OV-3

## COc1cc2c(cc1C)[n+]([O-])c(C)c(C(=O)C/C(=N/NC(=O)C[N+](C)(C)C)C(=O)Nc1cccc(Cl)c1C)[n+]2[O-]
786-0
  GI50: > 100 µM (inactive)
A498
  GI50: > 100 µM (inactive)
A549
  GI50: > 100 µM (inactive)
ACHN
  GI50: > 100 µM (inactive)
CAKI-1
  GI50: > 100 µM (inactive)
CCRF-CEM
  GI50: 49.9 µM (inactive)
COLO 205
  GI50: > 100 µM (inactive)
DLD-1
  GI50: > 100 µM (inactive)
DMS-114
  GI50: > 100 µM (inactive)
DMS-273
  GI50: > 100 µM (inactive)
EKVX
  GI50: > 100 µM (inactive)
HCC 2998
  GI50: > 100 µM (inactive)
HCT-116
  GI50: > 100 µM (inactive)
HCT-15
  GI50: > 100 µM
HL-60
  GI50: > 100 µM (inactive)
HOP-18
  GI50: > 100 µM (inactive)
HOP-62
  GI50: > 100 µM (inactive)
HOP-92
  GI50: > 100 µM (inactive)
HT-29
  GI50: > 100 µM (inactive)
IGROV-1
  GI50: > 100 µM (inactive)
K562
  GI50: > 100 µM (inactive)
KM-20L2
  GI50: > 100 µM (inactive)
KM12
  GI50: > 100 µM (inactive)
LOX IMVI
  GI50: > 100 µM (inactive)
LXFL 529
  GI50: > 100 µM (inactive)
M14
  GI50: > 100 µM (inactive)
MOLT-4
  GI50: > 100 µM (inactive)
Malme-3M
  GI50: > 100 µM (inactive)
NCI-H226
  GI50: > 100 µM (inactive)
NCI-H23
  GI50: > 100 µM (inactive)
NCI-H460
  GI50: > 100 µM (inactive)
NCI-H522
  GI50: > 100 µM (inactive)
OVCAR-3
  GI50: > 100 µM (inactive)
OVCAR-4
  GI50: > 100 µM (inactive)
OVCAR-5
  GI50: > 100 µM (inactive)
OVCAR-8
  GI50: > 100 µM (inactive)
RPMI-8226
  GI50: > 100 µM (inactive)
RXF 393
  GI50: > 100 µM (inactive)
RXF 631
  GI50: > 100 µM (inactive)
SF-268
  GI50: > 100 µM (inactive)
SF-295
  GI50: > 100 µM (inactive)
SF-539
  GI50: > 100 µM (inactive)
SK-MEL-28
  GI50: > 100 µM (inactive)
SK-MEL-2
  GI50: > 100 µM (inactive)
SK-MEL-5
  GI50: > 100 µM (inactive)
SN12C
  GI50: > 100 µM (inactive)
SNB-19
  GI50: > 100 µM (inactive)
SNB-75
  GI50: > 100 µM (inactive)
SNB-78
  GI50: > 100 µM (inactive)
SR
  GI50: > 100 µM (inactive)
SW-620
  GI50: > 100 µM (inactive)
TK-10
  GI50: > 100 µM (inactive)
U-251
  GI50: > 100 µM (inactive)
UACC-257
  GI50: > 100 µM (inactive)
UACC-62
  GI50: > 100 µM (inactive)
UO-31
  GI50: > 100 µM (inactive)
XF498
  GI50: > 100 µM (inactive)

## O=C1[C@@H]2C(c3ccccc3Br)=NO[C@@H]2C(=O)N1c1ccc(Cc2ccc(N3C(=O)[C@H]4C(c5ccccc5Br)=NO[C@H]4C3=O)cc2)cc1
786-0
  GI50: > 100 µM (inactive)
A498
  GI50: > 100 µM (inactive)
A549
  GI50: > 100 µM (inactive)
ACHN
  GI50: > 100 µM (inactive)
CAKI-1
  GI50: > 100 µM (inactive)
CCRF-CEM
  GI50: > 100 µM (inactive)
COLO 205
  GI50: > 100 µM (inactive)
DLD-1
  GI50: > 100 µM (inactive)
DMS-114
  GI50: > 100 µM (inactive)
DMS-273
  GI50: > 100 µM (inactive)
EKVX
  GI50: > 100 µM (inactive)
HCC 2998
  GI50: > 100 µM (inactive)
HCT-15
  GI50: > 100 µM
HL-60
  GI50: > 100 µM (inactive)
HOP-18
  GI50: 45.6 µM (inactive)
HOP-62
  GI50: > 100 µM (inactive)
HOP-92
  GI50: > 100 µM (inactive)
HT-29
  GI50: > 100 µM (inactive)
IGROV-1
  GI50: > 100 µM (inactive)
K562
  GI50: > 100 µM (inactive)
KM-20L2
  GI50: > 100 µM (inactive)
KM12
  GI50: > 100 µM (inactive)
LOX IMVI
  GI50: > 100 µM (inactive)
LXFL 529
  GI50: > 100 µM (inactive)
M14
  GI50: > 100 µM (inactive)
M19-MEL
  GI50: > 100 µM (inactive)
MOLT-4
  GI50: > 100 µM (inactive)
Malme-3M
  GI50: > 100 µM (inactive)
NCI-H226
  GI50: 96.4 µM (inactive)
NCI-H23
  GI50: > 100 µM (inactive)
NCI-H460
  GI50: > 100 µM (inactive)
OVCAR-3
  GI50: > 100 µM (inactive)
OVCAR-4
  GI50: > 100 µM (inactive)
OVCAR-5
  GI50: > 100 µM (inactive)
OVCAR-8
  GI50: > 100 µM (inactive)
RPMI-8226
  GI50: > 100 µM (inactive)
RXF 393
  GI50: 50.2 µM (inactive)
RXF 631
  GI50: > 100 µM (inactive)
SF-268
  GI50: > 100 µM (inactive)
SF-295
  GI50: > 100 µM (inactive)
SF-539
  GI50: > 100 µM (inactive)
SK-MEL-28
  GI50: > 100 µM (inactive)
SK-MEL-2
  GI50: > 100 µM (inactive)
SK-MEL-5
  GI50: > 100 µM (inactive)
SK-OV-3
  GI50: > 100 µM (inactive)
SN12C
  GI50: > 100 µM (inactive)
SNB-75
  GI50: 77.3 µM (inactive)
SNB-78
  GI50: > 100 µM (inactive)
SW-620
  GI50: > 100 µM (inactive)
TK-10
  GI50: > 100 µM (inactive)
U-251
  GI50: > 100 µM (inactive)
UACC-257
  GI50: > 100 µM (inactive)
UACC-62
  GI50: > 100 µM (inactive)
UO-31
  GI50: 54.8 µM (inactive)
XF498
  GI50: 67.9 µM (inactive)

## O=C(C(=O)n1ncc(Cl)c(Cl)c1=O)n1ncc(Cl)c(Cl)c1=O
786-0
  GI50: 19.5 µM (inactive)
A498
  GI50: > 100 µM (inactive)
A549
  GI50: 96.8 µM (inactive)
ACHN
  GI50: 16.9 µM (inactive)
CAKI-1
  GI50: 17.7 µM (inactive)
CCRF-CEM
  GI50: 6.85 µM (inactive)
COLO 205
  GI50: 13.9 µM (inactive)
DLD-1
  GI50: 16 µM (inactive)
DMS-114
  GI50: 27.4 µM (inactive)
DMS-273
  GI50: 17.9 µM (inactive)
EKVX
  GI50: 40.4 µM (inactive)
HCC 2998
  GI50: 23.3 µM (inactive)
HCT-116
  GI50: 15.8 µM (inactive)
HCT-15
  GI50: 17.5 µM
HL-60
  GI50: 5.82 µM (inactive)
HOP-18
  GI50: 31.8 µM (inactive)
HOP-62
  GI50: > 100 µM (inactive)
HOP-92
  GI50: 23.2 µM (inactive)
HT-29
  GI50: 18.2 µM (inactive)
IGROV-1
  GI50: 27.4 µM (inactive)
K562
  GI50: 20.3 µM (inactive)
KM-20L2
  GI50: 29.6 µM (inactive)
KM12
  GI50: 27.7 µM (inactive)
LOX IMVI
  GI50: 30.1 µM (inactive)
LXFL 529
  GI50: 14.6 µM (inactive)
M14
  GI50: 25.1 µM (inactive)
M19-MEL
  GI50: 20.4 µM (inactive)
MOLT-4
  GI50: 14.8 µM (inactive)
Malme-3M
  GI50: 19.7 µM (inactive)
NCI-H226
  GI50: > 100 µM (inactive)
NCI-H23
  GI50: 19.8 µM (inactive)
NCI-H460
  GI50: 45.7 µM (inactive)
NCI-H522
  GI50: 10.7 µM (inactive)
OVCAR-3
  GI50: 27.1 µM (inactive)
OVCAR-4
  GI50: 19.6 µM (inactive)
OVCAR-5
  GI50: > 100 µM (inactive)
OVCAR-8
  GI50: 23.1 µM (inactive)
RPMI-8226
  GI50: 4.18 µM (inactive)
RXF 393
  GI50: > 10 µM (inactive)
RXF 631
  GI50: 38 µM (inactive)
SF-268
  GI50: 42.4 µM (inactive)
SF-295
  GI50: 93.5 µM (inactive)
SF-539
  GI50: 28.8 µM (inactive)
SK-MEL-28
  GI50: 25.3 µM (inactive)
SK-MEL-2
  GI50: 23.3 µM (inactive)
SK-MEL-5
  GI50: 35.5 µM (inactive)
SK-OV-3
  GI50: > 53.8 µM (inactive)
SN12C
  GI50: 24.4 µM (inactive)
SNB-19
  GI50: > 100 µM (inactive)
SNB-75
  GI50: 40.8 µM (inactive)
SNB-78
  GI50: 28.6 µM (inactive)
SW-620
  GI50: 19.4 µM (inactive)
TK-10
  GI50: 27.4 µM (inactive)
U-251
  GI50: 35.7 µM (inactive)
UACC-257
  GI50: 19.5 µM (inactive)
UACC-62
  GI50: 15.1 µM (inactive)
UO-31
  GI50: 48.5 µM (inactive)
XF498
  GI50: 26.2 µM (inactive)
